Assays:
[1] = tested on: HCT116 cells and MKN45 cells; test: Test C: measurement of cell proliferation by 14C-thymidine pulse; format: cell-based; details: 14C-thymidine incorporation, 96 h of treatment; cell line not given
Protocol: The cells are seeded into Cytostar 96-well plates in 180 μl for 4 hours at 37° C. and 5% CO2: HCT116 cells in a proportion of 2500 cells per well in DMEM medium+10% foetal calf serum+1% L-glutamine, and MKN45 cells in a proportion of 7500 cells per well in RPMI medium+10% foetal calf serum+1% L-glutamine. After these 4 hours of incubation, the products are added in 10 μl as a […] concentrated solution according to the dilution method mentioned for the ELISA. The products are tested at 10 concentrations in duplicate from 10 000 nM to 0.3 nM with an increment of 3.
After treatment for 72 h, 10 μl of ^14C-thymidine at 10 μCi/ml are added so as to obtain 0.1 μCi per well. The ^14C-thymidine incorporation is measured on a Micro-Beta machine (Perkin-Elmer) after 24 hours of pulse and 96 h of treatment.
All the steps of the assay are automated on BIOMEK 2000 or TECAN stations.

MET [2] = target: T1, MET (Homo sapiens, UniProt P08581); test: Test B: inhibition of the autophosphorylation of MET, ELISA technique (pppY1230,1234,1235) in MKN45 cells; format: cell-based; design: endogenous in cells; host or cells: MKN45 cells; details: 1 h treatment, phosphoMET ELISA
Protocol: B) Test B: Inhibition of the autophosphorylation of MET; ELISA technique (pppY1230,1234,1235) a) Cell lysates: MKN45 cells are seeded into 96-well plates (cell coat BD polylysine) at 20 000 cells/well in 200 μl in RPMI medium+10% FCS+1% L-glutamine. They are left to adhere for 24 hours in an incubator.
The cells are treated the day after seeding with the products at 6 concentrations, in duplicate, for 1 h. At least 3 control wells are treated with the same final amount of DMSO.
Product dilution: Stock at 10 mM in pure DMSO—range from 10 mM to 30 μM with an increment of 3 in pure DMSO—intermediate dilutions to 1/50 in culture medium and then removal of 10 μl added directly to the cells (200 μl): final range of 10 000 to 30 nM.
At the end of the incubation, the supernatant is carefully removed and rinsing is performed with 200 μl of PBS. Next, 100 μl of lysis buffer are placed directly in the wells on ice and incubated at 4° C. for 30 minutes. Lysis buffer: 10 mM Tris HCl, pH 7.4, 100 mM NaCl, 1 mM EDTA, 1 mM EGTA, 1% Triton X-100, 10% glycerol, 0.1% SDS, 0.5% deoxycholate, 20 mM NaF, 2 mM Na3VO4, 1 mM PMSF and cocktail of antiproteases.
The 100 μl of lysates are transferred into a V-bottomed polypropylene plate and the ELISA is performed immediately, or the plate is frozen at −80° C.
70 μl of kit dilution buffer+30 μL of cell lysate, or 30 μl of lysis buffer for the blanks, are added to each well of the kit plate. Incubation is carried out for 2 h with gentle agitation at ambient temperature.
The wells are rinsed 4 times with 400 μl of kit washing buffer. Incubation is carried out with 100 μl of anti-phospho MET antibody for 1 hour at ambient temperature.
The wells are rinsed 4 times with 400 μl of kit washing buffer. Incubation is carried out with 100 μl of anti-rabbit HRP antibody for 30 minutes at ambient temperature (except for the wells of chromogen alone).
The wells are rinsed 4 times with 400 μl of kit washing buffer. 100 μL of chromogen are introduced and incubation is carried out for 30 minutes in the dark at ambient temperature.
The reaction is stopped with 100 μl of stop solution. The plate is read without delay at […], 0.1 second on a Wallac Victor plate reader.
Target sequence in this assay (P08581 25-1390): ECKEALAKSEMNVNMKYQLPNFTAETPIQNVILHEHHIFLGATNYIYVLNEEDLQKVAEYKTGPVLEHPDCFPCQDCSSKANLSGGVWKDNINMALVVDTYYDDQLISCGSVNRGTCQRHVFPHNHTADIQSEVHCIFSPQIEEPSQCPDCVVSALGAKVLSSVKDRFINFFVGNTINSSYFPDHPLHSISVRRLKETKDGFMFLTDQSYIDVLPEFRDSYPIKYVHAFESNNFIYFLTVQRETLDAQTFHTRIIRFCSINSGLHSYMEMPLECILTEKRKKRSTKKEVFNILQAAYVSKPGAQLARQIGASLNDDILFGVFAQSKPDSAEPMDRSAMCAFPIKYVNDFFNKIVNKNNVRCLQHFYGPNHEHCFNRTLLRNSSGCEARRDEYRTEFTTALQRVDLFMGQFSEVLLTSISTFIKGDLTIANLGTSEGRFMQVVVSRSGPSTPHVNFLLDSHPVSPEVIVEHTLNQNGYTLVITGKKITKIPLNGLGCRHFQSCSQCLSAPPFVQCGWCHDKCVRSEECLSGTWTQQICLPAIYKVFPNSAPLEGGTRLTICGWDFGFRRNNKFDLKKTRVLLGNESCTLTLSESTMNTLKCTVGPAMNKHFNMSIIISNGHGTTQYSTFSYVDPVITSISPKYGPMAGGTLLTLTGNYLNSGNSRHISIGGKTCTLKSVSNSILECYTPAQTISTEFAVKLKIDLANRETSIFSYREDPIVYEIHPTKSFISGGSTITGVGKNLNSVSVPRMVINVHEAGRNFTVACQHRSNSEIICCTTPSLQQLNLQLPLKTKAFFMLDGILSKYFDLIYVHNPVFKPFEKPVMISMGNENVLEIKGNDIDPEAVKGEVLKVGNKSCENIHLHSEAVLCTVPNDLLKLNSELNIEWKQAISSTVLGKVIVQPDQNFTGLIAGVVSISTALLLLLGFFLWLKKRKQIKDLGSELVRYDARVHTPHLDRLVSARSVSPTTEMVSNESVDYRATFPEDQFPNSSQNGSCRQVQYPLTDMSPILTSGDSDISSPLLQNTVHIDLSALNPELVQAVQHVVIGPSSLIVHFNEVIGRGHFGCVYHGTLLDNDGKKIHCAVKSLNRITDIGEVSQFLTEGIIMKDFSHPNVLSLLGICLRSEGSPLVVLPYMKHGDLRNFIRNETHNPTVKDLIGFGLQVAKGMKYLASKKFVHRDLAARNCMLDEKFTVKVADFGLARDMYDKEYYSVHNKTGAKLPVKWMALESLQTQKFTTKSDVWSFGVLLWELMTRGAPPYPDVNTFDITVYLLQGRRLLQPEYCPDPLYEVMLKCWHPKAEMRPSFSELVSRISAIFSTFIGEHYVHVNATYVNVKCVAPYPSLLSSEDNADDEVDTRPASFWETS

MET [3] = target: T1, MET; test: Test A: HTRF MET assay in 96-well format; format: biochemical; design: The His-Tev-MET (956-1390) recombinant DNA in pFastBac (Invitrogen) is transfected into insect cells; His-Tev (histidine tag with TEV cleavage site) (N, cleaved yes); made in house; host or cells: SF21 insect cells (baculovirus, pFastBac); details: MET 5 nM, 10 μM ATP, poly-(GAT)
Protocol: The His-Tev-MET (956-1390) recombinant DNA in pFastBac (Invitrogen) is transfected into insect cells and, after several viral amplification steps, the final baculovirus stock is tested for the expression of the protein of interest.
After infection for 72 h at 27° C. with the recombinant virus, SF21 cell cultures are harvested by centrifugation and the cell pellets are stored at −80° C.
The cell pellets are resuspended in the lysis buffer (buffer A [50 mM HEPES, pH 7.5, 250 mM NaCl, 10% glycerol, 1 mM TECP]; +cocktail of protease inhibitors, Roche Diagnostics, without EDTA, ref 1873580), stirred at 4° C. until the mixture is homogeneous, and then lysed mechanically using a “Dounce” type apparatus.
After centrifugation, the lysis supernatant is incubated for 2 h at 4° C. with nickel chelate resin (His-Trap 6 Fast Flow™, GE HealthCare). After washing with 20 volumes of buffer A, the suspension is packed into a column, and the proteins are eluted with a gradient of buffer B (buffer A+290 mM imidazole).
The fractions containing the protein of interest, for the purpose of electrophoretic analysis (SDS PAGE), are combined, concentrated by ultrafiltration (10 kDa cut-off) and injected onto an exclusion chromatography column (Superdex™ 200, GE HealthCare) equilibrated in buffer A.
After enzymatic cleavage of the histidine tag, the protein is reinjected onto a new IMAC nickel chelate chromatography column (His-Trap 6 Fast Flow™, GE HealthCare) equilibrated in buffer A. The fractions eluted with a gradient of buffer B and containing the protein of interest after electrophoresis (SDS PAGE) are finally combined and stored at −80° C.
For the production of autophosphorylated protein, the previous fractions are incubated for 1 h at ambient temperature after the addition of 2 mM ATP, 2 mM MgCl2 and 4 mM Na3VO4. After the reaction has been stopped with 5 mM of EDTA, the reaction mixture is injected onto a HiPrep desalifying column (GE HealthCare) pre-equilibrated in buffer A+4 mM Na3VO4, and the fractions containing the protein of interest (SDS PAGE analysis) are combined and stored at −80° C. The degree of phosphorylation is verified by mass spectrometry (LC-MS) and by peptide mapping.
MET at a final concentration of 5 nM is incubated in a final volume of 50 μl of enzymatic reaction in the presence of the test molecule (for a final concentration range of from 0.17 nM to 10 μM, 3% DMSO final concentration) in 10 mM MOPS buffer, pH 7.4, 1 mM DTT, 0.01% Tween 20. The reaction is initiated with the substrate solution to obtain final concentrations of 1 μg/ml poly-(GAT), 10 μM ATP and 5 mM MgCl2. After incubation for 10 min at ambient temperature, the reaction is stopped with a 30 μl mix so as to obtain a final solution of 50 mM Hepes, pH 7.5, 500 mM potassium fluoride, 0.1% BSA and 133 mM EDTA in the presence of 80 ng of streptavidin 61SAXLB Cis-Bio Int. and 18 ng of anti-phosphotyrosine Mab PT66-Europium Cryptate per well. After incubation for 2 hours at ambient temperature, the reading is taken at 2 wavelengths, 620 nm and 665 nm, on a reader for the TRACE/HTRF technique, and the % inhibition is calculated from the 665/620 ratios.
Target sequence in this assay (P08581 956-1390): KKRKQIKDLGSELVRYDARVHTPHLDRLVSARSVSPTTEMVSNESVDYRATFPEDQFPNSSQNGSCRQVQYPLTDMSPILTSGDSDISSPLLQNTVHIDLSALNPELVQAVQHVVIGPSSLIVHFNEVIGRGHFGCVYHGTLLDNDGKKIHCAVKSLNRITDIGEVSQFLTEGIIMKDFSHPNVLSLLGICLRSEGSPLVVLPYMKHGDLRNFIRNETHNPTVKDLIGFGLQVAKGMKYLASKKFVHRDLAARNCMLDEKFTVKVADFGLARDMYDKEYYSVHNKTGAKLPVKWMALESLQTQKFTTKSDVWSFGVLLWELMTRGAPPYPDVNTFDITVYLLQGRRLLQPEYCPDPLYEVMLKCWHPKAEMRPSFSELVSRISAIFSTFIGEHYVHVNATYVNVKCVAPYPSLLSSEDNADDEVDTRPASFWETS

melting point [°C] | IC50 [1] [nM] | IC50 (MET [2]) [nM] | IC50 (MET [3]) [nM] | Structure (SMILES)
204 to 207 | < 1000 | < 100 | < 100 | O=C(NCCN1CCOCC1)Nc1nc2ccc(Sc3nnc4ccccn34)cc2s1 [Example 3, 1-[2-(morpholin-4-yl)ethyl]-3-[6-([1,2,4]triazolo[4,3-a]pyridin-3-ylsulphanyl)-1,3-benzothiazol-2-yl]urea]
252 to 257 | < 1000 | < 100 | < 100 | COCCNC(=O)Nc1nc2ccc(Sc3nnc4ccccn34)cc2s1 [Example 5, 1-(2-methoxyethyl)-3-[6-([1,2,4]triazolo[4,3-a]pyridin-3-ylsulphanyl)-1,3-benzothiazol-2-yl]urea]
> 260 | < 1000 | < 100 | < 100 | O=C(Nc1nc2ccc(Sc3nnc4ccc(-c5cccc(F)c5)cn34)cc2s1)C1CC1 [Example 13, N-(6-{[6-(3-fluorophenyl)[1,2,4]triazolo[4,3-a]pyridin-3-yl]sulphanyl}-1,3-benzothiazol-2-yl)cyclopropanecarboxamide]

Reference: patent US20110263594A1, “NOVEL TRIAZOLO(4,3-A)PYRIDINE DERIVATIVES, PROCESS FOR THE PREPARATION THEREOF, USE THEREOF AS MEDICAMENTS, PHARMACEUTICAL COMPOSITIONS AND NOVEL USE, IN PARTICULAR AS MET INHIBITORS” (SANOFI-AVENTIS, priority 2008, published 2011)
